Our source for the IC50 values is patent US10538521B2, “Pyrimidine derivative having antimalarial activity” (CARNA BIOSCIENCES, INC., priority 2016, dated 2020).

In general, IC50 refers to the concentration that inhibits the measured activity by half.

Assay [1] concerns K1 strain, a drug resistant strain of Plasmodium falciparum. Put plainly: In vitro antimalarial assay (p-LDH, Malstat), K1 strain. Format: cell-based. The conditions noted are these: P. falciparum K1 (drug resistant), 72 h culture, p-LDH readout, read-out: Antimalarial activity (IC50 value), Strain K1. A digest of the protocol:
(§1)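 IC50 derived from concentration-response of parasite lactate dehydrogenase signal (Malstat reagent, NBT/PES formazan at 655 nm) after freeze-thaw lysis. Infected erythrocytes (hematocrit 2%, parasitaemia 0.5 or 1%) exposed 72 h to 12.5–0.0001 μM final compound under 3% O2-4% CO2-93% N2, FCR3 and K1 alike.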

For assay [2], the system named is FCR3 strain, a drug sensitive strain of Plasmodium falciparum. Put plainly: In vitro antimalarial assay (p-LDH, Malstat), FCR3 strain. Format: cell-based. The conditions noted are these: P. falciparum FCR3 (drug sensitive), 72 h culture, p-LDH readout, read-out: Antimalarial activity (IC50 value), Strain FCR3. A digest of the protocol:
as §1

Molecules are shown by their SMILES. A value given as a limit tells only on which side of the number the result lay.

`FC(F)(F)COc1ccc(Nc2nc(Nc3ccn4ccnc4c3)cc(N3CCOCC3)n2)cn1` [Example 77, N4-(imidazo[1,2-a]pyridin-7-yl)-6-morpholino-N2-(6-(2,2,2-trifluoroethoxy)pyridin-3-yl) pyrimidine-2,4-diamine]: the IC50 in assay [1] was 100 to 1000 nM; in assay [2], < 100 nM.

Regarding `FC(F)Oc1ccc(Nc2nc(Nc3ccn4ccnc4c3)cc(N3CCOCC3)n2)cn1` [Example 78, N2-(6-(difluoromethoxy)pyridin-3-yl)-N4-(imidazo[1,2-a]pyridin-7-yl)-6-morpholinopyrimidine-2,4-diamine], the IC50 was 100 to 1000 nM in assay [1] and < 100 nM in assay [2].

As for `Cc1ccc(Nc2nc(Nc3ccn4ccnc4c3)cc(N3CCCCC3)n2)cn1` [Example 79, N4-(imidazo[1,2-a]pyridin-7-yl)-N2-(6-methylpyridin-3-yl)-6-(piperidin-1-yl)pyrimidine-2,4-diamine], the IC50 in assay [1] and in assay [2] was 100 to 1000 nM throughout.

Consider `c1cn2ccc(Nc3cc(N4CCOCC4)nc(Nc4ccc(OC5CCC5)nc4)n3)cc2n1` [Example 80, N2-(6-cyclobutoxypyridin-3-yl)-N4-(imidazo[1,2-a]pyridin-7-yl)-6-morpholinopyrimidine-2,4-diamine], for which the IC50 in assay [1] and in assay [2] was 100 to 1000 nM throughout.

In the case of `c1cn2ccc(Nc3cc(N4CCOCC4)nc(Nc4ccc(OC5CCCCC5)nc4)n3)cc2n1` [Example 81, N2-(6-(cyclohexyloxy)pyridin-3-yl)-N4-(imidazo[1,2-a]pyridin-7-yl)-6-morpholinopyrimidine-2,4-diamine], the IC50 in assay [1] and in assay [2] was 100 to 1000 nM each time.

Take `c1cn2ccc(Nc3cc(N4CCOCC4)nc(Nc4ccc(OC5CCOCC5)nc4)n3)cc2n1` [Example 82, N4-(imidazo[1,2-a]pyridin-7-yl)-6-morpholino-N2-(6-((tetrahydro-2H-pyran-4-yl)oxy)pyridin-3-yl)pyrimidine-2,4-diamine]: the IC50 in assay [1] and in assay [2] was 100 to 1000 nM in each case.

In the case of `Cc1ccc(Nc2nc(Nc3ccn4ccnc4c3)cc(N(C)C)n2)cn1` [Example 83, N4-(imidazo[1,2-a]pyridin-7-yl)-N6,N6-dimethyl-N2-(6-methylpyridin-3-yl)pyrimidine-2,4,6-triamine], the IC50 lay within 1000 to 10000 nM in assay [1] and 100 to 1000 nM in assay [2].

Turning to `Cc1cc(C)nc(Nc2nc(Nc3ccn4ccnc4c3)cc(N(C)C)n2)c1` [Example 84, N2-(4,6-dimethylpyridin-2-yl)-N4-(imidazo[1,2-a]pyridin-7-yl)-N6,N6-dimethylpyrimidine-2,4,6-triamine], the IC50 in assay [1] and in assay [2] was < 100 nM each time.

On to `Cc1ccc(Nc2nc(N)cc(Nc3ccn4ccnc4c3)n2)cn1` [Example 85, N4-(imidazo[1,2-a]pyridin-7-yl)-N2-(6-methylpyridin-3-yl) pyrimidine-2,4,6-triamine], for which the IC50 in assay [1] and in assay [2] was 1000 to 10000 nM each time.

As to `COc1cc(Nc2ccn3ccnc3c2)nc(Nc2cc(C)cc(C)n2)n1` [Example 86, N2-(4,6-dimethylpyridin-2-yl)-N4-(imidazo[1,2-a]pyridin-7-yl)-6-methoxypyrimidine-2,4-diamine], the IC50 in assay [1] and in assay [2] was 100 to 1000 nM in each case.

On to `Cc1ccc(Nc2nc(Nc3ccn4ccnc4c3)cc(N3CCOCC3)n2)nc1C` [Example 87, N2-(5,6-dimethylpyridin-2-yl)-N4-(imidazo[1,2-a]pyridin-7-yl)-6-morpholinopyrimidine-2,4-diamine], for which the IC50 in assay [1] and in assay [2] was < 100 nM throughout.

On to `Cc1ccc(Nc2nc(Nc3ccn4ccnc4c3)cc(N3CCCCC3)n2)nc1C` [Example 88, N2-(5,6-dimethylpyridin-2-yl)-N4-(imidazo[1,2-a]pyridin-7-yl)-6-(piperidin-1-yl)pyrimidine-2,4-diamine], for which the IC50 in assay [1] and in assay [2] was < 100 nM each time.

Consider `CN1CCC(Oc2ccc(Nc3nc(Nc4ccn5ccnc5c4)cc(N4CCOCC4)n3)cn2)CC1` [Example 89, N4-(imidazo[1,2-a]pyridin-7-yl)-N2-(6-((1-methylpiperidin-4-yl)oxy)pyridin-3-yl)-6-morpholinopyrimidine-2,4-diamine], for which the IC50 was 100 to 1000 nM in assay [1] and < 100 nM in assay [2].

Consider `c1ccc(Oc2ccc(Nc3nc(Nc4ccn5ccnc5c4)cc(N4CCOCC4)n3)cn2)cc1` [Example 90, N4-(imidazo[1,2-a]pyridin-7-yl)-6-morpholino-N2-(6-phenoxypyridin-3-yl)pyrimidine-2,4-diamine], for which the IC50 is 100 to 1000 nM in assay [1] and < 100 nM in assay [2].

Take `c1ccc(COc2ccc(Nc3nc(Nc4ccn5ccnc5c4)cc(N4CCOCC4)n3)cn2)cc1` [Example 91, N2-(6-(benzyloxy)pyridin-3-yl)-N4-(imidazo[1,2-a]pyridin-7-yl)-6-morpholinopyrimidine-2,4-diamine]: the figures for the concentration for half-maximal inhibition (IC50) in assay [1] and in assay [2] were 100 to 1000 nM and < 100 nM, respectively.

As to `CCc1ccnc(Nc2nc(Nc3ccn4ccnc4c3)cc(N3CCCCCC3)n2)c1` [Example 92, 6-(azepan-1-yl)-N2-(4-ethylpyridin-2-yl)-N4-(imidazo[1,2-a]pyridin-7-yl)pyrimidine-2,4-diamine], the IC50 in assay [1] and in assay [2] was < 100 nM each time.

Turning to `CCc1cccc(Nc2nc(Nc3ccn4ccnc4c3)cc(N3CCCCC3)n2)n1` [Example 95, N2-(6-ethylpyridin-2-yl)-N4-(imidazo[1,2-a]pyridin-7-yl)-6-(piperidin-1-yl)pyrimidine-2,4-diamine], the IC50 in assay [1] and in assay [2] was < 100 nM each time.

Take `c1cc(Nc2nc(Nc3ccn4ccnc4c3)cc(N3CCCCC3)n2)nc(C2CC2)c1` [Example 96, N2-(6-cyclopropylpyridin-2-yl)-N4-(imidazo[1,2-a]pyridin-7-yl)-6-(piperidin-1-yl)pyrimidine-2,4-diamine]: the IC50 in assay [1] and in assay [2] was 100 to 1000 nM in each case.

Turning to `CCc1ccnc(Nc2nc(Nc3ccn4ccnc4c3)cc(N3CCN[C@@H](C)C3)n2)c1` [Example 97, (S)-N2-(4-ethylpyridin-2-yl)-N4-(imidazo[1,2-a]pyridin-7-yl)-6-(3-methylpiperazin-1-yl)pyrimidine-2,4-diamine], the IC50 in assay [1] and in assay [2] was 100 to 1000 nM in each case.

As to `CCc1ccnc(Nc2nc(Nc3ccn4ccnc4c3)cc(N3CCC(C)CC3)n2)c1` [Example 98, N2-(4-ethylpyridin-2-yl)-N4-(imidazo[1,2-a]pyridin-7-yl)-6-(4-methylpiperidin-1-yl)pyrimidine-2,4-diamine], the IC50 in assay [1] and in assay [2] was 100 to 1000 nM each time.

As to `CCc1ccnc(Nc2nc(Nc3ccn4ccnc4c3)cc(N3CCC(C)(C)CC3)n2)c1` [Example 99, 6-(4,4-dimethylpiperidin-1-yl)-N2-(4-ethylpyridin-2-yl)-N4-(imidazo[1,2-a]pyridin-7-yl)pyrimidine-2,4-diamine], the IC50 in assay [1] and in assay [2] was 100 to 1000 nM throughout.

As for `CCc1ccnc(Nc2nc(Nc3ccn4ccnc4c3)cc(N3CCN(C(=O)OC(C)(C)C)[C@H](C)C3)n2)c1` [Example 100, (R)-tert-butyl 4-(2-((4-ethylpyridin-2-yl)amino)-6-(imidazo[1,2-a]pyridin-7-ylamino)pyrimidin-4-yl)-2-methylpiperazine-1-carboxylate], the IC50 in assay [1] and in assay [2] was 100 to 1000 nM throughout.

On to `CCc1ccnc(Nc2nc(Nc3ccn4ccnc4c3)cc(N3CCN(C)[C@@H](C)C3)n2)c1` [Example 101, (S)-6-(3,4-dimethylpiperazin-1-yl)-N2-(4-ethylpyridin-2-yl)-N4-(imidazo[1,2-a]pyridin-7-yl)pyrimidine-2,4-diamine], for which the IC50 in assay [1] lay within 1000 to 10000 nM; in assay [2] it was 100 to 1000 nM.

`CCc1ccnc(Nc2nc(Nc3ccn4ccnc4c3)cc(N3CCN[C@H](C)C3)n2)c1` [Example 102, (R)-N2-(4-ethylpyridin-2-yl)-N4-(imidazo[1,2-a]pyridin-7-yl)-6-(3-methylpiperazin-1-yl)pyrimidine-2,4-diamine]: the IC50 in assay [1] and in assay [2] was 100 to 1000 nM throughout.

Regarding `CCc1ccnc(Nc2nc(Nc3ccn4ccnc4c3)cc(N3CCN(C(=O)OC(C)(C)C)[C@@H](C)C3)n2)c1` [Example 103, (S)-tert-butyl 4-(2-((4-ethylpyridin-2-yl)amino)-6-(imidazo[1,2-a]pyridin-7-ylamino)pyrimidin-4-yl)-2-methylpiperazine-1-carboxylate], the IC50 in assay [1] and in assay [2] was 100 to 1000 nM in each case.

Consider `CCc1ccnc(Nc2nc(Nc3ccn4ccnc4c3)cc(N3CCN(C)[C@H](C)C3)n2)c1` [Example 104, (R)-6-(3,4-dimethylpiperazin-1-yl)-N2-(4-ethylpyridin-2yl)-N4-(imidazo[1,2-a]pyridin-7-yl)pyrimidine-2,4-diamine], for which the figures for the IC50 in assay [1] and in assay [2] were 1000 to 10000 nM and 100 to 1000 nM, respectively.

For the compound `CCc1cccc(Nc2nc(Nc3ccn4ccnc4c3)cc(N3CCOCC3)n2)n1` [Example 107, N2-(6-ethylpyridin-2-yl)-N4-(imidazo[1,2-a]pyridin-7-yl)-6-morpholinopyrimidine-2,4-diamine], the IC50 in assay [1] and in assay [2] was < 100 nM in each case.

As to `CCCc1cccc(Nc2nc(Nc3ccn4ccnc4c3)cc(N3CCOCC3)n2)n1` [Example 108, N4-(imidazo[1,2-a]pyridin-7-yl)-6-morpholino-N2-(6-propylpyridin-2-yl)pyrimidine-2,4-diamine], the half-inhibitory concentration (IC50) in assay [1] is 100 to 1000 nM; in assay [2] it was < 100 nM.

As for `CCCCc1cccc(Nc2nc(Nc3ccn4ccnc4c3)cc(N3CCOCC3)n2)n1` [Example 109, N2-(6-butylpyridin-2-yl)-N4-(imidazo[1,2-a]pyridin-7-yl)-6-morpholinopyrimidine-2,4-diamine], the IC50 in assay [1] and in assay [2] was < 100 nM each time.
